Laboratory results reported in PubChem BioAssay AID256 (DTP/NCI, 2004).
“And” between values parts separate entries of the source, which are not always exact repeats. Equal entries are not always repeated. Toxic doses and inconclusive results are not listed. How the source made its calls: active means survival T/C of 150% or more; inactive means T/C below 125% in these data.

Test system: CD2F1 mice, L1210 leukemia ip, survival T/C
Test: NCI In Vivo Anticancer Drug Screen. Data for tumor model L1210 Leukemia (intraperitoneal) in CD2F1 (CDF1) mice
Conditions: higher = longer survival
Method in brief: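 Implant tumor; dose compound or vehicle; measure endpoint in both groups; report treated divided by control.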

[1] = endpoint: mean survival time, dose: 25.0 mg/kg/injection, schedule: Q04DX003 (ip), vehicle: saline with Tween-80
[2] = endpoint: mean survival time, dose: 50.0 mg/kg/injection, schedule: Q04DX003 (ip), vehicle: saline with Tween-80
[3] = endpoint: mean survival time, dose: 100.0 mg/kg/injection, schedule: Q04DX003 (ip), vehicle: saline with Tween-80
[4] = endpoint: median survival time, dose: 25.0 mg/kg/injection, schedule: Q01DX009 (ip), vehicle: saline with Tween-80
[5] = endpoint: median survival time, dose: 50.0 mg/kg/injection, schedule: Q01DX009 (ip), vehicle: saline with Tween-80
[6] = endpoint: mean survival time, dose: 200.0 mg/kg/injection, schedule: Q04DX003 (ip), vehicle: saline with Tween-80
[7] = endpoint: mean survival time, dose: 400.0 mg/kg/injection, schedule: Q04DX003 (ip), vehicle: saline with Tween-80
[8] = endpoint: mean survival time, dose: 100.0 mg/kg/injection, schedule: Q01DX009 (ip), vehicle: saline with Tween-80
[9] = endpoint: mean survival time, dose: 200.0 mg/kg/injection, schedule: Q01DX009 (ip), vehicle: saline with Tween-80
[10] = endpoint: mean survival time, dose: 400.0 mg/kg/injection, schedule: Q01DX009 (ip), vehicle: saline with Tween-80

Measured: T/C

CCN1/C(=C/C=C/C=C\C=C\c2sc3ccc4ccccc4c3[n+]2CC)Sc2ccc3ccccc3c21
inactive: endpoint: mean survival time, dose: 1.25 mg/kg/injection, schedule: Q01DX009 (ip), vehicle: saline with Tween-80 116 % of control and 117 % of control and 112 % of control | endpoint: mean survival time, dose: 2.5 mg/kg/injection, schedule: Q01DX009 (ip), vehicle: saline with Tween-80 116 % of control and 119 % of control and 120 % of control | endpoint: mean survival time, dose: 5.0 mg/kg/injection, schedule: Q01DX009 (ip), vehicle: saline with Tween-80 114 % of control | endpoint: mean survival time, dose: 10.0 mg/kg/injection, schedule: Q01DX009 (ip), vehicle: saline with Tween-80 117 % of control and 118 % of control | endpoint: mean survival time, dose: 20.0 mg/kg/injection, schedule: Q01DX009 (ip), vehicle: saline with Tween-80 114 % of control and 116 % of control | endpoint: mean survival time, dose: 40.0 mg/kg/injection, schedule: Q01DX009 (ip), vehicle: saline with Tween-80 101 % of control and 112 % of control

CC(C)(C)CC(C)(C)c1ccc(O)c(O)c1
inactive: [1] 101 % of control | [2] 93 % of control | [3] 96 % of control

c1ccc([Te][Te]c2ccccc2)cc1
inactive: endpoint: median survival time, dose: 12.5 mg/kg/injection, schedule: Q01DX009 (ip), vehicle: saline with Tween-80 104 % of control | [4] 108 % of control | [5] 104 % of control

O=[N+]([O-])c1ccc(C2C3C(c4ccccc4)=NCN32)cc1 (stereo not drawn)
inactive: [3] 96 % of control | [6] 97 % of control | [7] 92 % of control

C=COC(=O)C(Cc1ccccc1)NC(=O)OCc1ccccc1 (stereo not drawn)
inactive: [4] 96 % of control | [5] 96 % of control | endpoint: median survival time, dose: 100.0 mg/kg/injection, schedule: Q01DX009 (ip), vehicle: saline with Tween-80 93 % of control | endpoint: median survival time, dose: 200.0 mg/kg/injection, schedule: Q01DX009 (ip), vehicle: saline with Tween-80 93 % of control | endpoint: median survival time, dose: 400.0 mg/kg/injection, schedule: Q01DX009 (ip), vehicle: saline with Tween-80 101 % of control

O=C(/C=C\c1ccccc1)c1ccc(Cl)cc1
inactive: endpoint: mean survival time, dose: 100.0 mg/kg/injection, schedule: Q01DX001 (ip), vehicle: other 90 % of control | endpoint: mean survival time, dose: 200.0 mg/kg/injection, schedule: Q01DX001 (ip), vehicle: other 92 % of control | endpoint: mean survival time, dose: 400.0 mg/kg/injection, schedule: Q01DX001 (ip), vehicle: other 88 % of control

C=C(C)CN=C=S
inactive: [3] 98 % of control

CC(=O)c1cccc(N=C(N)N)c1
inactive: endpoint: mean survival time, dose: 75.0 mg/kg/injection, schedule: Q01DX001 (ip), vehicle: saline with Tween-80 98 % of control | endpoint: mean survival time, dose: 150.0 mg/kg/injection, schedule: Q01DX001 (ip), vehicle: saline with Tween-80 96 % of control | endpoint: mean survival time, dose: 300.0 mg/kg/injection, schedule: Q01DX001 (ip), vehicle: saline with Tween-80 97 % of control

CCCCCCC[CH2][Sn]([CH2]C)([CH2]C)[O]C(C)=O
inactive: endpoint: mean survival time, dose: 0.25 mg/kg/injection, schedule: Q04DX003 (ip), vehicle: saline 106 % of control | endpoint: mean survival time, dose: 0.5 mg/kg/injection, schedule: Q04DX003 (ip), vehicle: saline 101 % of control | endpoint: mean survival time, dose: 0.63 mg/kg/injection, schedule: Q04DX003 (ip), vehicle: saline 93 % of control | endpoint: mean survival time, dose: 1.0 mg/kg/injection, schedule: Q04DX003 (ip), vehicle: saline 103 % of control | endpoint: mean survival time, dose: 1.25 mg/kg/injection, schedule: Q04DX003 (ip), vehicle: saline 102 % of control

c1ccc2nc(C3CO3)cnc2c1 (stereo not drawn)
inactive: [2] 100 % of control | [3] 96 % of control | [6] 97 % of control

COC(=O)C1OC(C)(C)OC1C(=O)OC (stereo not drawn)
inactive: endpoint: mean survival time, dose: 1.56 mg/kg/injection, schedule: Q01DX001 (ip), vehicle: saline with Tween-80 103 % of control | endpoint: mean survival time, dose: 3.12 mg/kg/injection, schedule: Q01DX001 (ip), vehicle: saline with Tween-80 100 % of control | endpoint: mean survival time, dose: 6.25 mg/kg/injection, schedule: Q01DX001 (ip), vehicle: saline with Tween-80 95 % of control

CC1(C)CCC(CC(=O)O)(CC(=O)O)CC1
inactive: [8] 105 % of control | [9] 104 % of control | [10] 104 % of control

O=C1CCCN1c1ccc([N+](=O)[O-])cc1
inactive: endpoint: mean survival time, dose: 12.5 mg/kg/injection, schedule: Q04DX002 (ip), vehicle: saline with Tween-80 102 % of control | endpoint: mean survival time, dose: 25.0 mg/kg/injection, schedule: Q04DX002 (ip), vehicle: saline with Tween-80 102 % of control | endpoint: mean survival time, dose: 50.0 mg/kg/injection, schedule: Q04DX002 (ip), vehicle: saline with Tween-80 102 % of control | endpoint: mean survival time, dose: 100.0 mg/kg/injection, schedule: Q01DX001 (ip), vehicle: saline with Tween-80 110 % of control | [8] 98 % of control | endpoint: mean survival time, dose: 200.0 mg/kg/injection, schedule: Q01DX001 (ip), vehicle: saline with Tween-80 104 % of control | [9] 98 % of control | endpoint: mean survival time, dose: 400.0 mg/kg/injection, schedule: Q01DX001 (ip), vehicle: saline with Tween-80 101 % of control | [10] 106 % of control

CCCCCCCCN(c1ccc(C(=O)NC(CCC(=O)OCC)C(=O)OCC)cc1)S(=O)(=O)c1ccc(C)cc1 (stereo not drawn)
inactive: endpoint: mean survival time, dose: 12.5 mg/kg/injection, schedule: Q04DX003 (ip), vehicle: saline with Tween-80 94 % of control | [1] 100 % of control | [2] 102 % of control | [3] 86 % of control | [6] 86 % of control | [7] 87 % of control

Cc1ccc(N=C(N)NC#N)cc1C
inactive: [8] 95 % of control | [9] 97 % of control

C=C(c1ccccc1)c1ccc(F)cc1
inactive: endpoint: mean survival time, dose: 100.0 mg/kg/injection, schedule: Q01DX009 (ip), vehicle: saline sonified 102 % of control | [3] 100 % of control | endpoint: mean survival time, dose: 200.0 mg/kg/injection, schedule: Q01DX009 (ip), vehicle: saline sonified 97 % of control | [6] 100 % of control | endpoint: mean survival time, dose: 400.0 mg/kg/injection, schedule: Q01DX009 (ip), vehicle: saline sonified 103 % of control | [7] 102 % of control

CN(C)C(=O)c1cc[n+](Cc2ccc(Cl)c(Cl)c2)cc1
inactive: endpoint: mean survival time, dose: 25.0 mg/kg/injection, schedule: Q01DX009 (ip), vehicle: saline 98 % of control | endpoint: mean survival time, dose: 50.0 mg/kg/injection, schedule: Q01DX009 (ip), vehicle: saline 121 % of control | endpoint: mean survival time, dose: 100.0 mg/kg/injection, schedule: Q01DX009 (ip), vehicle: saline 89 % of control

C=C1C(=O)OC2CCN3CC=C(COC(=O)C(C)(O)C4(CO4)C1C)C23 (stereo not drawn)
inactive: endpoint: mean survival time, dose: 75.0 mg/kg/injection, schedule: Q01DX001 (ip), vehicle: saline 107 % of control
